Test results reported in patent US20060240404A1, “Methods of isolating genes encoding proteins of specific function and of screening for pharmaceutically active agents” (Yeda Research And Development Co. Ltd., priority 2000, published 2006).

Test system: translocation of fibrillar adhesion in GFP-tensin transfected HFF cells
Assay: Correlation analysis of fibrillar adhesion dynamics in time-lapse movies of GFP-tensin transfected cells treated with acto-myosin inhibitors
Format: cell-based
Details: for duration till maximum respond after addition / translocation of fibrillar adhesion following addition: 2 mM Lat-A, 150 mM H-7 or 100 mM ML-7; for correlation between sequential frames following addition of inhibitor: Eq. 1, 2 mM Lat-A, 150 mM H-7 or 100 mM ML-7, before treatment <0.65
Procedure: HFF cells were analyzed by time-lapse fluorescence recording starting 24 hours after transfection with GFP-tensin as described (10). During the recording different inhibitors of acto-myosin contractility were added ([…]) at the time point indicated by the first arrow, and washed out at the time point indicated by the second arrow. In each digital movie, a constant square frame (I) of […] containing only fibrillar adhesions without focal contacts was acquired as a function of time. Correlation was calculated between pairs of subsequent time points (It and It+1) for the duration of the movie. Correlation between It and It+1 was calculated (according to Eq. 1, where N=It and M=It+1). The graphs present this correlation as a function of time (t); and
The basic idea of this novel approach is that correlation is a quantitative measure of image similarity. Correlation is defined as the normalized pixel-by-pixel multiplication of two normalized images M and N (Eq. 1), and it is higher when the similarity between the two images is higher. Thus, if, and only if, N and M are identical images the correlation gets its maximum value of 1. When N equals −M (inverted images) the correlation reaches its minimum value, −1, and when N and M are totally unrelated images the correlation approaches zero. The below correlation equation (Eq. 1) can be extended to evaluate the similarity of two images which, are displaced with respect to each other (Eq. 2). To illustrate how this can be applied to characterize dynamic processes consider 4 cases in which N and M are two images of the same field taken at two close time points: (i) a correlation which equals 1 indicates a lack of any change in the field (since N equals M); (ii) if all the objects in the field are translated one pixel along the x axis, such that Mx,y=Nx+1,y, the correlation defined above will be less then 1. Yet when the objects are bigger then one pixel they will overlap in the two images, and thus the value of the correlation between N and M will be still close to 1; (iii) if the objects are translated 100 pixels, such that Mx,y=Nx+100,y with no overlap between the objects in the two images, the correlation will be low. However there is a single translational vector ([a^max,b^max], Eq. 4), i.e. (1,0) for case (ii) and (100,0) for case (iii), that will bring the two images to perfectly overlap, Mx,y=Nx+a,y+b, and will raise the more general translated correlation (C, Eq. 2) back to its maximal value of unity; (iv) if the objects moved 100 pixels, but different ones moved to different directions, the correlation will be low for all possible translational vectors, since the two images never overlap.
Inhibitors of acto-myosin contractility, like latrunculin-A (Lat-A), H-7 and ML-7, block the translocation of fibrilar adhesion (Zamir et al., Nature Cell Biology, Vol. 2, 191-196, 2000). In order to follow the kinetics of this effect a correlation analysis according to Eq. 1 was applied on digital movies of GFP-tensin transfected cells before, during and after treatments with inhibitors. Before treatment, fibrilar adhesions were highly dynamic and thus the correlation between two sequential frames was low (<0.65, FIG. 2). Following the addition of Lat-A, H-7 or ML-7 the translocation of fibrillar adhesion was inhibited, leading to higher correlation between sequential frames (˜0.78, 0.81 and 0.92 for Lat-A, H-7 and ML-7, respectively). The duration till maximum respond to Lat-A was relatively short (˜8 minutes after addition), while the respond to H-7 and ML-7 were more gradual (˜50 minutes after H-7 addition and ˜80 minutes after ML-7 addition). After washing-out the drugs, the translocation of fibrillar adhesion recovered and the correlation dropped back to lower levels. The recovery from H-7 was relatively fast (<20 minutes) while recovery from Lat-A and ML-7 took relatively long time (>80 minutes).

SMILES | duration till maximum respond after addition [min] | translocation of fibrillar adhesion following addition | correlation between sequential frames following addition of inhibitor | recovery of fibrillar adhesion translocation after washing-out the drug (after wash-out) [min]
O=S(=O)(c1cccc2c(I)cccc12)N1CCCNCC1 [ML-7] | ~80 | inhibited | ~0.92 | 
C/C1=C/C(=O)O[C@@H]2C[C@@H](CC[C@H](C)/C=C\C=C\CC1)O[C@@](O)([C@@H]1CSC(=O)N1)C2 [Lat-A, latrunculin-A] | ~8 | inhibited | ~0.78 | 
CC1CNCCN1S(=O)(=O)c1cccc2cnccc12 (stereo not shown) [H-7] | ~50 | inhibited | ~0.81 | < 20
